Results from article PMC3694426 (Clinical cancer research : an official journal of the …, 2013).
Entries after “also recorded” stand apart in the source; their conditions may differ.

Experiment: phase I dose escalation: DLTs, MTD and treatment-emergent adverse events
Type: in vivo, human
Conditions: for patients who experienced DLTs: modified DLT criteria

SMILES: CC1=C2C[C@H]3[C@@H](CC[C@@H]4C[C@H](NS(C)(=O)=O)CC[C@@]43C)[C@@H]2CC[C@@]2(C1)O[C@@H]1C[C@H](C)CN[C@H]1[C@H]2C [IPI-926]
- DLTs per total patients treated (20 mg QD): 0/1
- DLTs per total patients treated (30 mg QD): 0/1
- DLTs per total patients treated (40 mg QD): 0/1
- DLTs per total patients treated (60 mg QD): 0/1
- DLTs per total patients treated (90 mg QD): 0/1
- ALT elevation (lab), treatment-emergent adverse event (130 mg (n = 56), Grade 1–2): 40 (71) n (%)
- AST elevation (lab), treatment-emergent adverse event (130 mg (n = 56), Grade 1–2): 41 (73) n (%)
- Alopecia, treatment-emergent adverse event (130 mg (n = 56), Grade 1–2): 17 (30) n (%)
- Decreased appetite, treatment-emergent adverse event (130 mg (n = 56), Grade 1–2): 12 (21) n (%)
- Diarrhea, treatment-emergent adverse event (130 mg (n = 56), Grade 1–2): 15 (27) n (%)
- Dysgeusia, treatment-emergent adverse event (130 mg (n = 56), Grade 1–2): 6 (11) n (%)
- Fatigue, treatment-emergent adverse event (130 mg (n = 56), Grade 1–2): 29 (52) n (%)
- Muscle spasms, treatment-emergent adverse event (130 mg (n = 56), Grade 1–2): 11 (20) n (%)
- Nausea, treatment-emergent adverse event (130 mg (n = 56), Grade 1–2): 23 (41) n (%)
- Thrombocytopenia (lab), treatment-emergent adverse event (130 mg (n = 56), Grade 1–2): 12 (21) n (%)
- Vomiting, treatment-emergent adverse event (130 mg (n = 56), Grade 1–2): 11 (20) n (%)
- ALT elevation (lab), treatment-emergent adverse event (130 mg (n = 56), Grade ≥3): 4 (7) n (%)
- AST elevation (lab), treatment-emergent adverse event (130 mg (n = 56), Grade ≥3): 2 (4) n (%)
- Alopecia, treatment-emergent adverse event (130 mg (n = 56), Grade ≥3): 0 (0) n (%)
- Decreased appetite, treatment-emergent adverse event (130 mg (n = 56), Grade ≥3): 0 (0) n (%)
- Diarrhea, treatment-emergent adverse event (130 mg (n = 56), Grade ≥3): 0 (0) n (%)
- Dysgeusia, treatment-emergent adverse event (130 mg (n = 56), Grade ≥3): 1 (2) n (%)
- Fatigue, treatment-emergent adverse event (130 mg (n = 56), Grade ≥3): 3 (5) n (%)
- Hemoglobin (lab), treatment-emergent adverse event (130 mg (n = 56), Grade ≥3): 2 (4) n (%)
- Muscle spasms, treatment-emergent adverse event (130 mg (n = 56), Grade ≥3): 1 (2) n (%)
- Nausea, treatment-emergent adverse event (130 mg (n = 56), Grade ≥3): 0 (0) n (%)
- Thrombocytopenia (lab), treatment-emergent adverse event (130 mg (n = 56), Grade ≥3): 3 (5) n (%)
- Vomiting, treatment-emergent adverse event (130 mg (n = 56), Grade ≥3): 0 (0) n (%)
- DLTs per total patients treated (130 mg QD): 0/56
- ALT elevation (lab), treatment-emergent adverse event (160 mg (n = 18), Grade 1–2): 10 (55) n (%)
- AST elevation (lab), treatment-emergent adverse event (160 mg (n = 18), Grade 1–2): 14 (78) n (%)
- Alopecia, treatment-emergent adverse event (160 mg (n = 18), Grade 1–2): 4 (22) n (%)
- Decreased appetite, treatment-emergent adverse event (160 mg (n = 18), Grade 1–2): 5 (28) n (%)
- Diarrhea, treatment-emergent adverse event (160 mg (n = 18), Grade 1–2): 2 (11) n (%)
- Dysgeusia, treatment-emergent adverse event (160 mg (n = 18), Grade 1–2): 4 (22) n (%)
- Fatigue, treatment-emergent adverse event (160 mg (n = 18), Grade 1–2): 8 (44) n (%)
- Hemoglobin (lab), treatment-emergent adverse event (160 mg (n = 18), Grade 1–2): 12 (66) n (%)
- Muscle spasms, treatment-emergent adverse event (160 mg (n = 18), Grade 1–2): 6 (33) n (%)
- Nausea, treatment-emergent adverse event (160 mg (n = 18), Grade 1–2): 6 (33) n (%)
- Thrombocytopenia (lab), treatment-emergent adverse event (160 mg (n = 18), Grade 1–2): 4 (22) n (%)
- Vomiting, treatment-emergent adverse event (160 mg (n = 18), Grade 1–2): 6 (33) n (%)
- ALT elevation (lab), treatment-emergent adverse event (160 mg (n = 18), Grade ≥3): 5 (28) n (%)
- AST elevation (lab), treatment-emergent adverse event (160 mg (n = 18), Grade ≥3): 2 (11) n (%)
- Alopecia, treatment-emergent adverse event (160 mg (n = 18), Grade ≥3): 0 (0) n (%)
- Decreased appetite, treatment-emergent adverse event (160 mg (n = 18), Grade ≥3): 0 (0) n (%)
- Diarrhea, treatment-emergent adverse event (160 mg (n = 18), Grade ≥3): 1 (6) n (%)
- Dysgeusia, treatment-emergent adverse event (160 mg (n = 18), Grade ≥3): 1 (6) n (%)
- Fatigue, treatment-emergent adverse event (160 mg (n = 18), Grade ≥3): 3 (17) n (%)
- Hemoglobin (lab), treatment-emergent adverse event (160 mg (n = 18), Grade ≥3): 1 (6) n (%)
- Muscle spasms, treatment-emergent adverse event (160 mg (n = 18), Grade ≥3): 0 (0) n (%)
- Nausea, treatment-emergent adverse event (160 mg (n = 18), Grade ≥3): 0 (0) n (%)
- Thrombocytopenia (lab), treatment-emergent adverse event (160 mg (n = 18), Grade ≥3): 0 (0) n (%)
- Vomiting, treatment-emergent adverse event (160 mg (n = 18), Grade ≥3): 0 (0) n (%)
- DLT description (160 mg QD): Grade 3 AST and ALT elevation
- patients with DLT (grade 3 ALT and grade 3 AST elevation) (160 mg QD): 1 of 6
- DLTs per total patients treated (160 mg QD (dose selected for phase II)): 1/18
- patients with ≥grade 3 ALT elevations (160 mg QD, the MTD): 28%
- patients with ≥grade 3 AST elevations (160 mg QD, the MTD): 11%
- DLT description (180 mg QD): Grade 3 fatigue and anorexia; also recorded: Grade 3 AST and ALT elevation
- DLTs per total patients treated (180 mg QD (intolerable dose level)): 2/5
- patients who experienced DLTs (180 mg QD): 2 patients
- DLT description (200 mg QD): Grade 3 AST elevation; also recorded: Grade 3 ALT elevation
- patients with adverse events that met DLT criteria (200 mg QD): 2 patients
- DLTs per total patients treated (200 mg QD (intolerable dose level)): 2/3
- DLT description (210 mg QD): Grade 3 AST and ALT elevation; also recorded: Grade 2 ALT elevation and hyperbilirubinemia
- DLTs per total patients treated (210 mg QD (intolerable dose level)): 2/7
- patients who experienced DLTs (210 mg QD): 2 patients
- patients discontinued from the study due to toxicity (6 of 94 patients): 6%
- ≥grade 2 toxicities (20, 30, 40, 60 and 90 mg, 1-patient cohorts): no ≥grade 2 toxicities were documented
- deaths while on study (94 patients): No patients died while on study
- ALT elevation (lab), treatment-emergent adverse event (<130 mg (n = 5), Grade 1–2): 1 (20) n (%)
- AST elevation (lab), treatment-emergent adverse event (<130 mg (n = 5), Grade 1–2): 1 (20) n (%)
- Alopecia, treatment-emergent adverse event (<130 mg (n = 5), Grade 1–2): 1 (20) n (%)
- Decreased appetite, treatment-emergent adverse event (<130 mg (n = 5), Grade 1–2): 0 (0) n (%)
- Diarrhea, treatment-emergent adverse event (<130 mg (n = 5), Grade 1–2): 0 (0) n (%)
